Values joined by “and” are separate entries in the source; they are usually repeats but may differ in a detail not shown here. Identical values can stand only once. Inconclusive results and toxic doses are left out.

The test system of this experiment is L1210 leukemia iv in BDF1 mice, survival T/C. As to the kind of experiment: NCI In Vivo Anticancer Drug Screen. Data for tumor model L1210 Leukemia (intravenous) in B6D2F1 (BDF1) mice. As to conditions: higher = longer survival. How it is done: The antitumor activity of compounds was measured in mice bearing transplantable tumors. Survival or tumor size were measured and the results are expressed as the measurement made in the treated group (T) divided by the measurement made in the vehicle treated control group (C). The tumor model used in this assay is L1210 Leukemia (intravenous) in B6D2F1 (BDF1) mice

Setting [1] is: endpoint: mean survival time, dose: 7.0 mg/kg/injection, schedule: Q01DX001 (ip), vehicle: other.
Setting [2] is: endpoint: mean survival time, dose: 24.0 mg/kg/injection, schedule: Q01DX001 (ip), vehicle: other.

In the case of `Nc1nc(=S)c2[nH]cnc2[nH]1`, the T/C is 107 % of control (endpoint: mean survival time, dose: 0.4 mg/kg/injection, schedule: Q01DX008 (ip), vehicle: alkali diluted with saline); 117 % of control (endpoint: mean survival time, dose: 0.4 mg/kg/injection, schedule: Q06HX008 (ip), vehicle: alkali diluted with saline); 114 % of control (endpoint: mean survival time, dose: 0.4 mg/kg/injection, schedule: Q12HX008 (ip), vehicle: alkali diluted with saline); 114 % of control (endpoint: mean survival time, dose: 0.6 mg/kg/injection, schedule: Q01DX008 (ip), vehicle: alkali diluted with saline); 152 % of control (endpoint: mean survival time, dose: 0.6 mg/kg/injection, schedule: Q01HX008 (ip), vehicle: alkali diluted with saline); 156 % of control (endpoint: mean survival time, dose: 4.8 mg/kg/injection, schedule: Q01DX001 (ip), vehicle: alkali diluted with saline). For the same compound, the T/C is 195 % of control (endpoint: mean survival time, dose: 115.0 mg/kg/injection, schedule: Q01DX001 (ip), vehicle: alkali diluted with saline); 206 % of control and 227 % of control (endpoint: median survival time, dose: 20.0 mg/kg/injection, schedule: Q04DX002 (ip), vehicle: alkali diluted with saline); 198 % of control and 231 % of control (endpoint: median survival time, dose: 25.0 mg/kg/injection, schedule: Q04DX002 (ip), vehicle: alkali diluted with saline).
Consider `O=NN(CCF)C(=O)NC1CSCSC1`, for which the T/C runs as follows: (endpoint: mean survival time, dose: 3.7 mg/kg/injection, schedule: Q01DX001 (ip), vehicle: other) 124 % of control; under setting [1], 186 % of control and 204 % of control; (endpoint: mean survival time, dose: 15.0 mg/kg/injection, schedule: Q01DX001 (ip), vehicle: other) 351 % of control and 417 % of control; (endpoint: mean survival time, dose: 31.0 mg/kg/injection, schedule: Q01DX001 (ip), vehicle: other) 582 % of control and 744 % of control; (endpoint: mean survival time, dose: 62.0 mg/kg/injection, schedule: Q01DX001 (ip), vehicle: other) 433 % of control and 846 % of control.
Regarding `O=C1N[C@@H]([C@H]2CC[C@H](Cl)CN2)C(=O)N[C@H]1[C@H]1CC[C@H](Cl)CN1`, the T/C is 186 % of control (endpoint: mean survival time, dose: 4.4 mg/kg/injection, schedule: Q01DX001 (ip), vehicle: saline); 202 % of control (endpoint: mean survival time, dose: 6.6 mg/kg/injection, schedule: Q01DX001 (ip), vehicle: saline); 227 % of control (endpoint: mean survival time, dose: 10.0 mg/kg/injection, schedule: Q01DX001 (ip), vehicle: saline); 163 % of control (endpoint: mean survival time, dose: 15.0 mg/kg/injection, schedule: Q01DX001 (ip), vehicle: saline).
`CC(CN1CC(=O)NC(=O)C1)N1CC(=O)NC(=O)C1` (stereo not given): the T/C was 165 % of control (endpoint: mean survival time, dose: 108.0 mg/kg/injection, schedule: Q04DX003 (ip), vehicle: Klucel (hydroxypropylcellulose) (HPC)); 176 % of control (endpoint: mean survival time, dose: 180.0 mg/kg/injection, schedule: Q04DX003 (ip), vehicle: Klucel (hydroxypropylcellulose) (HPC)); 191 % of control (endpoint: mean survival time, dose: 300.0 mg/kg/injection, schedule: Q04DX003 (ip), vehicle: Klucel (hydroxypropylcellulose) (HPC)).
Consider `O=NN(CCCl)C(=O)NC1C2CC3CC(C2)CC1C3` (stereo not given), for which the T/C is 107 % of control and 118 % of control (endpoint: mean survival time, dose: 22.0 mg/kg/injection, schedule: Q01DX001 (ip), vehicle: other); 160 % of control (endpoint: mean survival time, dose: 45.0 mg/kg/injection, schedule: Q01DX001 (ip), vehicle: other); 156 % of control (endpoint: mean survival time, dose: 91.0 mg/kg/injection, schedule: Q01DX001 (ip), vehicle: other); 166 % of control and 229 % of control (endpoint: mean survival time, dose: 181.0 mg/kg/injection, schedule: Q01DX001 (ip), vehicle: other); 440 % of control and 514 % of control (endpoint: mean survival time, dose: 362.0 mg/kg/injection, schedule: Q01DX001 (ip), vehicle: other).
On to `Nc1n[nH]c(N)n1`, for which the T/C runs as follows: (endpoint: mean survival time, dose: 100.0 mg/kg/injection, schedule: Q03HX024 (ip), vehicle: saline) 104 % of control and 91 % of control and 100 % of control; (endpoint: mean survival time, dose: 150.0 mg/kg/injection, schedule: Q03HX024 (ip), vehicle: saline) 103 % of control (2×) and 104 % of control; (endpoint: mean survival time, dose: 225.0 mg/kg/injection, schedule: Q03HX024 (ip), vehicle: saline) 112 % of control and 116 % of control; (endpoint: mean survival time, dose: 335.0 mg/kg/injection, schedule: Q03HX024 (ip), vehicle: saline) 153 % of control and 159 % of control (2×); (endpoint: mean survival time, dose: 500.0 mg/kg/injection, schedule: Q03HX024 (ip), vehicle: saline) 201 % of control and 215 % of control and 257 % of control; (endpoint: mean survival time, dose: 4000.0 mg/kg/injection, schedule: Q01DX001 (ip), vehicle: saline) 120 % of control.
Consider `O=c1[nH]cc(F)c(=O)[nH]1`, for which the T/C is 109 % of control (endpoint: mean survival time, dose: 10.0 mg/kg/injection, schedule: Q01DX005 (ip), vehicle: saline); 120 % of control (endpoint: mean survival time, dose: 20.0 mg/kg/injection, schedule: Q01DX005 (ip), vehicle: saline); 152 % of control (endpoint: mean survival time, dose: 40.0 mg/kg/injection, schedule: Q01DX005 (ip), vehicle: saline); 183 % of control (endpoint: mean survival time, dose: 50.0 mg/kg/injection, schedule: Q01DX005 (ip), vehicle: saline); 182 % of control and 186 % of control (endpoint: mean survival time, dose: 60.0 mg/kg/injection, schedule: Q01DX005 (ip), vehicle: saline); 150 % of control (endpoint: mean survival time, dose: 120.0 mg/kg/injection, schedule: Q01DX001 (ip), vehicle: water). Also, the T/C is 154 % of control (endpoint: mean survival time, dose: 150.0 mg/kg/injection, schedule: Q01DX001 (ip), vehicle: water) and 180 % of control (endpoint: mean survival time, dose: 180.0 mg/kg/injection, schedule: Q01DX001 (ip), vehicle: water).
In the case of `O=NN(CCCl)C(=O)NC1CS(=O)(=O)CS(=O)(=O)C1`, the T/C (endpoint: mean survival time, dose: 8.0 mg/kg/injection, schedule: Q04DX004 (ip), vehicle: saline with Tween-80) is 177 % of control; the T/C (endpoint: mean survival time, dose: 12.0 mg/kg/injection, schedule: Q04DX004 (ip), vehicle: saline with Tween-80) was 529 % of control; the T/C (endpoint: mean survival time, dose: 18.0 mg/kg/injection, schedule: Q04DX004 (ip), vehicle: saline with Tween-80) is 687 % of control.
Regarding `O=NN(CCCl)C(=O)NC1CCS(=O)(=O)C1` (stereo not given) (tested in a mixture with another compound), the T/C reads like this: under setting [1], 267 % of control; (endpoint: mean survival time, dose: 11.0 mg/kg/injection, schedule: Q01DX001 (ip), vehicle: other) 239 % of control; (endpoint: mean survival time, dose: 14.0 mg/kg/injection, schedule: Q01DX001 (oral), vehicle: other) 276 % of control; (endpoint: mean survival time, dose: 16.0 mg/kg/injection, schedule: Q01DX001 (ip), vehicle: other) 281 % of control; (endpoint: mean survival time, dose: 22.0 mg/kg/injection, schedule: Q01DX001 (oral), vehicle: other) 474 % of control; under setting [2], 281 % of control. The T/C is 495 % of control (endpoint: mean survival time, dose: 32.0 mg/kg/injection, schedule: Q01DX001 (oral), vehicle: other); 232 % of control (endpoint: mean survival time, dose: 36.0 mg/kg/injection, schedule: Q01DX001 (ip), vehicle: other); 253 % of control (endpoint: mean survival time, dose: 48.0 mg/kg/injection, schedule: Q01DX001 (oral), vehicle: other); 213 % of control (endpoint: mean survival time, dose: 72.0 mg/kg/injection, schedule: Q01DX001 (oral), vehicle: other).
On to `O=NN(CCF)C(=O)NC1CCS(=O)(=O)CC1`, for which the T/C runs as follows: (endpoint: mean survival time, dose: 4.8 mg/kg/injection, schedule: Q01DX001 (oral), vehicle: other) 185 % of control and 225 % of control; (endpoint: mean survival time, dose: 6.0 mg/kg/injection, schedule: Q01DX001 (ip), vehicle: other) 190 % of control and 213 % of control; (endpoint: mean survival time, dose: 11.0 mg/kg/injection, schedule: Q01DX001 (oral), vehicle: other) 429 % of control and 504 % of control; (endpoint: mean survival time, dose: 12.0 mg/kg/injection, schedule: Q01DX001 (ip), vehicle: other) 365 % of control and 518 % of control; (endpoint: mean survival time, dose: 21.0 mg/kg/injection, schedule: Q01DX001 (oral), vehicle: other) 562 % of control and 817 % of control; under setting [2], 620 % of control and 688 % of control. Further, the T/C is, setting by setting: (endpoint: mean survival time, dose: 40.0 mg/kg/injection, schedule: Q01DX001 (oral), vehicle: other) 436 % of control and 569 % of control; (endpoint: mean survival time, dose: 48.0 mg/kg/injection, schedule: Q01DX001 (ip), vehicle: other) 517 % of control and 590 % of control.
Regarding `O=NN(CCCl)C(=O)NC1CCC(=O)NC1=O` (stereo not given), the T/C is, setting by setting: (endpoint: mean survival time, dose: 4.0 mg/kg/injection, schedule: Q01DX001 (ip), vehicle: other) 162 % of control and 175 % of control; (endpoint: mean survival time, dose: 8.0 mg/kg/injection, schedule: Q01DX001 (ip), vehicle: other) 244 % of control and 260 % of control; (endpoint: mean survival time, dose: 17.0 mg/kg/injection, schedule: Q01DX001 (ip), vehicle: other) 380 % of control and 428 % of control; (endpoint: mean survival time, dose: 35.0 mg/kg/injection, schedule: Q01DX001 (ip), vehicle: other) 395 % of control and 570 % of control.

The values are drawn from PubChem BioAssay AID254 (DTP/NCI, 2004).
